{"source": "patent US20130210031A1", "about": "(priority 2010, published 2013)", "origin": "cited, not measured here", "biological_target": "EF (Bacillus anthracis, UniProt P40136)", "sequence (P40136 whole entry, looked up)": "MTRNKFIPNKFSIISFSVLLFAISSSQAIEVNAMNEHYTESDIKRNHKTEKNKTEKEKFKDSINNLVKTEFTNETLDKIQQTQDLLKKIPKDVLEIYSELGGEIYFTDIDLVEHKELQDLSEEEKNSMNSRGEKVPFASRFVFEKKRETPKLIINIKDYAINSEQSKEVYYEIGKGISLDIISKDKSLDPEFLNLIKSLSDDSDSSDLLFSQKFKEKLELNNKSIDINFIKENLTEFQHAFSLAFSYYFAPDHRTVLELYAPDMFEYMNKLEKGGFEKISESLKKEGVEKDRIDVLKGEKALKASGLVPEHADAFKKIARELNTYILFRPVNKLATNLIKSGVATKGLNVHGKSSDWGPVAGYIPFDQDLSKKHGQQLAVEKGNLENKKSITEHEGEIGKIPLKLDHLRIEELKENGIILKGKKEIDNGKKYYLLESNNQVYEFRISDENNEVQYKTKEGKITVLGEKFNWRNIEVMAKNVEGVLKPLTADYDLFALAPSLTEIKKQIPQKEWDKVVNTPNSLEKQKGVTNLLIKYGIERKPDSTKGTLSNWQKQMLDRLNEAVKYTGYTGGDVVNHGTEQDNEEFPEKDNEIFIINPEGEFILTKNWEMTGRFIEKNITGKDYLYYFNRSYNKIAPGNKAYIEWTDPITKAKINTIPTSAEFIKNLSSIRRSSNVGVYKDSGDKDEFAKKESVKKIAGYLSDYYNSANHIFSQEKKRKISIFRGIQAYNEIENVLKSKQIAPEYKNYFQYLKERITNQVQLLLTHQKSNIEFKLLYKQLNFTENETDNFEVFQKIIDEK", "data": [{"smiles": "CC(C)(C)C(=O)OCOP(=O)(COCCn1cnc2c(N)ncnc21)OCOC(=O)C(C)(C)C", "note": "[adefovir dipivoxil]", "values": [{"measurement": "EF inhibitor potency", "result": "potent EF inhibitor"}]}]}
